pIC50: −log10 of the molar value.
Tested on: Leishmania infantum
Test: Inhibitory activity against Leishmania infantum parasite L1 strain
Assay type: functional, organism-based

pIC50: > 5.20
SMILES: C[C@@H]1[C@H](O)[C@@H](C)/C=C/C=C/C=C/C=C/C=C/C=C/C=C/[C@H](O[C@@H]2O[C@H](C)[C@@H](O)[C@H](N)[C@@H]2O)C[C@@H]2O[C@](O)(C[C@@H](O)C[C@@H](O)[C@H](O)CC[C@@H](O)C[C@@H](O)CC(=O)O[C@H]1C)C[C@H](O)[C@H]2C(=O)O [AMPHOTERICIN B]

Source: ChEMBL document CHEMBL1136539, “N-ferrocenylmethyl, N'-methyl-2-substituted benzimidazolium iodide salts with in vitro activity against the Leishmania infantum parasite strain L1” (Bioorg Med Chem Lett, 2003)
